According to patent publication US12576018B2, “Active agents for skin and hair care with sensory modifying properties” (SYMRISE AG, priority 2019, dated 2026):

Test system: skin
Test: Sensory assessment of 1 wt.-% 3-hydroxypropyl undecylenate in o/w emulsion versus placebo
Format: in vivo, human
Conditions: 1 wt.-% in o/w emulsion vs placebo without active
Procedure: Heat phase A and C separately up to 80° C. Disperse phase B in phase A. Add phase C to phase AB and emulsify using a HomoRex stirrer (3 min, […]). Add phase D and neutralize. Allow to cool by using a vane stirrer (10 min at 150 rpm, then 10 min at 100 rpm). Pre-dissolve 3-hydroxypropyl undecylenate with pentylene glycol and propylene glycol (phase E) and add to the emulsion by using a vane stirrer (10 min, 100 rpm). Sensory Assessment: Test design (for two samples; presented in random order) 100 μl of sample was applied on the forearm. Sample was distributed with index and middle finger in rotary movements for 20 seconds. Then the second sample is applied on the other forearm and again distributed. After 3 minutes the skin feel is evaluated. Question to the panellists: Which formulation (A or B) leaves the skin more soft and moisturized on a scale from 0-4? (Soft/moisture: 0=not at all; 4=very strong)

SMILES: C=CCCCCCCCCC(=O)OCCCO [3-hydroxypropyl undecylenate]
- Soft and moisturized skin feel versus placebo (in words): more soft and moisturized skin feel
